Test results from PubChem BioAssay AID330 (DTP/NCI, 2004).
Values joined by “and” are separate entries in the source; they are usually repeats but may differ in a detail not shown here. Equal entries are not always repeated. Toxic doses and inconclusive results are not listed. Rule for the calls: active = survival T/C of 150% or more; inactive = T/C below 125% in these data.

Test system: P388 leukemia ip, CD2F1 mice, survival T/C
Experiment: NCI In Vivo Anticancer Drug Screen. Data for tumor model P388 Leukemia (intraperitoneal) in CD2F1 (CDF1) mice
Conditions: endpoint: median survival time, higher = longer survival
In short: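 Mice carrying the transplanted tumor received test compound or vehicle. Survival was recorded in each group, and the value is the treated-group measurement divided by that of the vehicle-treated control group.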

[1] = dose: 60.0 mg/kg/injection, schedule: Q01DX005 (ip), vehicle: saline with Tween-80
[2] = dose: 120.0 mg/kg/injection, schedule: Q01DX005 (ip), vehicle: saline with Tween-80
[3] = dose: 240.0 mg/kg/injection, schedule: Q01DX005 (ip), vehicle: saline with Tween-80
[4] = dose: 50.0 mg/kg/injection, schedule: Q01DX009 (ip), vehicle: saline
[5] = dose: 100.0 mg/kg/injection, schedule: Q01DX009 (ip), vehicle: saline
[6] = dose: 200.0 mg/kg/injection, schedule: Q01DX009 (ip), vehicle: saline
[7] = dose: 50.0 mg/kg/injection, schedule: Q01DX009 (ip), vehicle: saline with Tween-80
[8] = dose: 50.0 mg/kg/injection, schedule: Q01DX005 (ip), vehicle: saline with Tween-80
[9] = dose: 100.0 mg/kg/injection, schedule: Q01DX005 (ip), vehicle: saline with Tween-80

Measured: T/C

CC1=C2CC/C(C)=C/CCC3(C)OC3CC/C(C)=C/C2OC1=O (stereo unspecified)
inactive: dose: 1.25 mg/kg/injection, schedule: Q01DX009 (ip), vehicle: other 118 % of control | dose: 2.0 mg/kg/injection, schedule: Q01DX009 (ip), vehicle: Klucel (hydroxypropylcellulose) (HPC) 91 % of control | dose: 2.5 mg/kg/injection, schedule: Q01DX009 (ip), vehicle: other 105 % of control | dose: 4.0 mg/kg/injection, schedule: Q01DX009 (ip), vehicle: Klucel (hydroxypropylcellulose) (HPC) 89 % of control | dose: 5.0 mg/kg/injection, schedule: Q01DX009 (ip), vehicle: other 112 % of control | dose: 10.0 mg/kg/injection, schedule: Q01DX009 (ip), vehicle: saline with Tween-80 92 % of control | dose: 16.0 mg/kg/injection, schedule: Q01DX009 (ip), vehicle: Klucel (hydroxypropylcellulose) (HPC) 94 % of control | dose: 20.0 mg/kg/injection, schedule: Q01DX009 (ip), vehicle: saline with Tween-80 89 % of control | dose: 32.0 mg/kg/injection, schedule: Q01DX009 (ip), vehicle: Klucel (hydroxypropylcellulose) (HPC) 94 % of control | dose: 40.0 mg/kg/injection, schedule: Q01DX009 (ip), vehicle: saline with Tween-80 108 % of control

O=C(N=C1C(=O)C2(CCCCC2)C2(N=C(c3ccccc3)OC2=O)C12CCCCC2)c1ccccc1 (stereo unspecified)
inactive: [1] 107 % of control | [2] 100 % of control | [3] 100 % of control

CCOC1CN(C(=O)ON)N1C(=O)ON (stereo unspecified)
inactive: [4] 109 % of control | [5] 107 % of control | [6] 89 % of control

CC(C)NC(=O)C(C)O (stereo unspecified)
inactive: dose: 50.0 mg/kg/injection, schedule: Q01DX005 (ip), vehicle: saline 101 % of control | dose: 100.0 mg/kg/injection, schedule: Q01DX005 (ip), vehicle: saline 101 % of control | dose: 200.0 mg/kg/injection, schedule: Q01DX005 (ip), vehicle: saline 101 % of control

CS/C(=N/N=C(\C)c1ccccn1)[Se][Se]/C(=N/N=C(\C)c1ccccn1)SC
inactive: dose: 6.25 mg/kg/injection, schedule: Q01DX009 (ip), vehicle: saline with Tween-80 90 % of control | dose: 12.5 mg/kg/injection, schedule: Q01DX009 (ip), vehicle: saline with Tween-80 97 % of control | [7] 93 % of control | dose: 200.0 mg/kg/injection, schedule: Q01DX009 (ip), vehicle: saline with Tween-80 93 % of control

CC1C[As+](c2ccccc2)(c2ccccc2)CC(C)N1C.[O-][Cl+3]([O-])([O-])[O-] (stereo unspecified)
inactive: dose: 25.0 mg/kg/injection, schedule: Q01DX009 (ip), vehicle: saline with Tween-80 100 % of control | [7] 104 % of control | dose: 100.0 mg/kg/injection, schedule: Q01DX009 (ip), vehicle: saline with Tween-80 106 % of control

N=C(N)c1nn[nH]n1
inactive: dose: 12.5 mg/kg/injection, schedule: Q04DX003 (ip), vehicle: Klucel (hydroxypropylcellulose) (HPC) 100 % of control | dose: 25.0 mg/kg/injection, schedule: Q04DX003 (ip), vehicle: Klucel (hydroxypropylcellulose) (HPC) 100 % of control | dose: 50.0 mg/kg/injection, schedule: Q04DX003 (ip), vehicle: Klucel (hydroxypropylcellulose) (HPC) 97 % of control | dose: 100.0 mg/kg/injection, schedule: Q04DX003 (ip), vehicle: Klucel (hydroxypropylcellulose) (HPC) 103 % of control | dose: 200.0 mg/kg/injection, schedule: Q04DX003 (ip), vehicle: Klucel (hydroxypropylcellulose) (HPC) 100 % of control

COC(=O)C(CCCN=C(N)N[N+](=O)[O-])NC(=O)c1ccc2c(c1O)C(=O)c1ccccc1C2=O (stereo unspecified)
inactive: dose: 100.0 mg/kg/injection, schedule: Q04DX002 (ip), vehicle: saline with Tween-80 96 % of control | dose: 200.0 mg/kg/injection, schedule: Q04DX002 (ip), vehicle: saline with Tween-80 92 % of control | dose: 400.0 mg/kg/injection, schedule: Q04DX002 (ip), vehicle: saline with Tween-80 92 % of control

COc1ccc(CN2CCCN(Cc3ccc(OC)cc3)C2c2cc3ccccc3c3ccccc23)cc1
inactive: [8] 99 % of control | [9] 99 % of control | dose: 200.0 mg/kg/injection, schedule: Q01DX005 (ip), vehicle: saline with Tween-80 101 % of control

CC(=O)NCCc1nc(-c2nc(C(=O)NCCC(C)C)cs2)cs1
inactive: dose: 12.5 mg/kg/injection, schedule: Q01DX009 (ip), vehicle: distilled water + Tween-80 92 % of control | dose: 25.0 mg/kg/injection, schedule: Q01DX009 (ip), vehicle: distilled water + Tween-80 94 % of control | dose: 50.0 mg/kg/injection, schedule: Q01DX009 (ip), vehicle: distilled water + Tween-80 98 % of control | dose: 100.0 mg/kg/injection, schedule: Q01DX009 (ip), vehicle: distilled water + Tween-80 102 % of control | dose: 200.0 mg/kg/injection, schedule: Q01DX009 (ip), vehicle: distilled water + Tween-80 115 % of control

O=c1oc2c(ccc3nc(-c4ccccc4)sc32)c(N2CCOCC2)c1Cl
inactive: dose: 50.0 mg/kg/injection, schedule: Q01DX005 (ip), vehicle: Klucel (hydroxypropylcellulose) (HPC) 92 % of control | dose: 100.0 mg/kg/injection, schedule: Q01DX005 (ip), vehicle: Klucel (hydroxypropylcellulose) (HPC) 91 % of control | dose: 200.0 mg/kg/injection, schedule: Q01DX005 (ip), vehicle: Klucel (hydroxypropylcellulose) (HPC) 89 % of control

COc1cc(C2C(C#N)=C(C)Nc3nc(N)nc(N)c32)cc(OC)c1OC (stereo unspecified)
inactive: [1] 94 % of control | [2] 106 % of control | [3] 104 % of control

CCCN1CCc2c([nH]c3cc(OC)ccc23)C1C (stereo unspecified)
inactive: [8] 100 % of control | [9] 108 % of control

COC(=O)c1cc(-c2ccc([N+](=O)[O-])cc2)c2c(=O)n(-c3ccccc3)[nH]c2n1
inactive: [1] 94 % of control | [2] 87 % of control | [3] 88 % of control

Cc1nc2cc(N(C)C)ccc2c(Cl)c1C(N)=O
inactive: dose: 15.0 mg/kg/injection, schedule: Q01DX005 (ip), vehicle: Klucel (hydroxypropylcellulose) (HPC) 100 % of control | dose: 30.0 mg/kg/injection, schedule: Q01DX005 (ip), vehicle: Klucel (hydroxypropylcellulose) (HPC) 99 % of control | dose: 60.0 mg/kg/injection, schedule: Q01DX005 (ip), vehicle: Klucel (hydroxypropylcellulose) (HPC) 100 % of control and 96 % of control

CCC1CCCCN1C(=S)N/N=C(\C)c1ccccn1 (stereo unspecified)
inactive: dose: 12.5 mg/kg/injection, schedule: Q04DX003 (ip), vehicle: saline with Tween-80 106 % of control | dose: 25.0 mg/kg/injection, schedule: Q04DX003 (ip), vehicle: saline with Tween-80 108 % of control and 115 % of control | dose: 50.0 mg/kg/injection, schedule: Q04DX003 (ip), vehicle: saline with Tween-80 115 % of control

Cc1ccc2c(c1)C=CC(C#N)N2C(=O)OCc1ccccc1 (stereo unspecified)
inactive: dose: 100.0 mg/kg/injection, schedule: Q04DX003 (ip), vehicle: saline with Tween-80 90 % of control | dose: 200.0 mg/kg/injection, schedule: Q04DX003 (ip), vehicle: saline with Tween-80 95 % of control

CCC1OC(/C(C)=C/C(C)/C=C/C2C(C)C2/C=C/C2OC(CC(=O)O)CC(O)C2O)CC=C1C (stereo unspecified)
inactive: dose: 16.82 mg/kg/injection, schedule: Q01DX009 (ip), vehicle: saline 100 % of control | dose: 33.65 mg/kg/injection, schedule: Q01DX009 (ip), vehicle: saline 92 % of control | dose: 67.3 mg/kg/injection, schedule: Q01DX009 (ip), vehicle: saline 94 % of control

CCCCOc1cccc2c1C(=O)c1c(O)c3c(c(O)c1C2=O)C[C@@](O)(C(C)=O)C[C@@H]3OC1CC(N)C(O)C(C)O1 (stereo partly specified)
inactive: dose: 3.13 mg/kg/injection, schedule: Q04DX003 (ip), vehicle: water 117 % of control and 120 % of control | dose: 6.25 mg/kg/injection, schedule: Q04DX003 (ip), vehicle: water 113 % of control and 117 % of control | dose: 12.5 mg/kg/injection, schedule: Q04DX003 (ip), vehicle: water 115 % of control | dose: 50.0 mg/kg/injection, schedule: Q04DX003 (ip), vehicle: water 89 % of control and 90 % of control

C[CH2][Ge]([CH2]C)[CH2]C.C[CH2][Ge]([Cl])[CH2]C
inactive: [4] 100 % of control | [5] 100 % of control | [6] 91 % of control
